Drawing on patent US20240261443A1, “COMPOUNDS AND COMPOSITIONS USEFUL AS RADIOTRACERS FOR IMAGING OF REACTIVE OXIDATIVE SPECIES” (Wake Forest University Health Sciences, priority 2019, published 2024), this text covers IC50 for 1 molecule.

SMILES strings stand for the structures.

This assay concerns PC3 cell line. The assay can be described thus: MTT cytotoxicity IC50 assay, PC3. It is filed as cell-based, human. As to conditions: Homo sapiens. The procedure:
The cells were seeded at density 5×10^3 cells/well. After 24 h pre-incubation period, cells were treated with 0.01 mM to 2.0 mM of freshly prepared KS1 and KS2 along with ascorbate (n=3) for 48 h. 0.2% of DMSO served as vehicle control. After 48 h, the solutions were removed from all plates and MTT assays performed following the published protocols. IC50 values are presented as mean±SD from at least three independent experiments.
There is growing evidence for a therapeutic role of ascorbate against several cancers (Creagan et al., Failure of High-Dose Vitamin C (Ascorbic Acid) Therapy to Benefit Patients with Advanced Cancer. New England Journal of Medicine 1979, 301 (13), 687-690; Chen et al., Pharmacologic ascorbic acid concentrations selectively kill cancer cells: action as a pro-drug to deliver hydrogen peroxide to tissues. Proceedings of the National Academy of Sciences of the United States of America 2005, 102 (38), 13604-13609; Prasad et al., High Doses of Multiple Antioxidant Vitamins: Essential Ingredients in Improving the Efficacy of Standard Cancer Therapy. Journal of the American College of Nutrition 1999, 18 (1), 13-25). Pharmacologic doses of ascorbate (oral and/or intravenous) could increase the effectiveness of cancer chemotherapy in many solid cancer therapies (López-Lizaro, Dual role of hydrogen peroxide in cancer: Possible relevance to cancer chemoprevention and therapy. Cancer Letters 2007, 252 (1), 1-8; Li et al., New Developments and Novel Therapeutic Perspectives for Vitamin C. The Journal of Nutrition 2007, 137 (10), 2171-2184; Klimant et al., Intravenous vitamin C in the supportive care of cancer patients: a review and rational approach. Current Oncology 2018, 25 (2), 139-148. The primary objective of this experiment was to determine the cytotoxic effects of KS1 at pharmacological concentrations. Cancer cell lines were selected based on their high ROS implications. […] These cell lines have been studied extensively with ascorbic acid treatments (Schoenfeld et al., O(2)(·−) and H(2)O(2)-Mediated Disruption of Fe Metabolism Causes the Differential Susceptibility of NSCLC and GBM Cancer Cells to Pharmacological Ascorbate. Cancer Cell 2017, 31 (4), 487-500.e8; Chen et al., Modulators of Redox Metabolism in Head and Neck Cancer. Antioxidants & Redox Signaling 2017, 29 (16), 1660-1690; Khandrika et al., Oxidative stress in prostate cancer. Cancer Lett 2009, 282 (2), 125-136.
(Tetrazolium assays rely on reduction of a dye to a coloured formazan, in cell work by metabolically active cells.)

By IC50 is commonly meant the concentration at which inhibition is half-maximal. Low readings indicate greater potency, high ones weaker potency. In the case of `O=C1O/C(=C/CCl)C(O)=C1OCc1ccc(OCCF)cc1` [KS1, (E)-5-(2-chloroethylidene)-3-(4-(2-fluoroethoxy)benzyloxy)-4-hydroxyfuran-2(5H)-one], the half-maximal inhibitory concentration (IC50) by setting is: (PC-3, Example 7, 48 h) 311 µM; (PC-3, Example 13) 1010 µM.
